Data set [1] has as its system HEI-193 cells. In words: HEI-193 cell viability. In kind it is cell-based, human. As to conditions: WST-8, 3 days.
Data set [2] relates to normal human fibroblasts. Briefly: Normal human fibroblast viability. As to conditions: WST-8, 3 days. In kind it is cell-based. A general note: Tetrazolium assays rely on reduction of a dye to a coloured formazan, in cell work by metabolically active cells.
Data set [3] relates to normal human fibroblasts. Briefly: Apoptosis markers in normal human fibroblasts. In kind it is cell-based. As to conditions: 1 day.
The subject of data set [4] is HEI-193 cells. In words: Western blotting of differentiation and cell cycle markers in HEI-193 cells. In kind it is cell-based, human. As to conditions: 7 days. (In western blotting, separated proteins are transferred to a membrane and probed.)
The subject of data set [5] is NF2-associated vestibular schwannomas. As to conditions: progressive NF2-associated vestibular schwannomas; cited from earlier work.

The values that follow come from paper PMC12187371 (Neuro-Oncology, 2024).

As to `Cn1cnc2c(F)c(Nc3ccc(Br)cc3Cl)c(C(=O)NOCCO)cc21` [Selumetinib], the “proliferation of HEI-193 cells” value in data set [1] is on record as “did not exhibit any effect”.

`COc1cc(N2CCC(N3CCN(C)CC3)CC2)ccc1Nc1ncc(Cl)c(Nc2ccccc2P(C)(C)=O)n1` [Brigatinib]: the “toxicity in human normal fibroblasts” value in data set [2] is listed as “showed toxicity”. Further, the “cytochrome c release from mitochondria” value in data set [3] was “induced cytochrome c release”. Moreover, in data set [4], the “expression of SOX10, MBP, p21 and p27” value is reported as “decreased the expression of all these markers”; the “expression of stem cell factor SOX2” value was “decreased the expression of all these markers”. Also, in data set [1], the “proliferation of HEI-193 cells” value is given as “dose-dependently reduced”.

For Bevacizumab, the “patients with improved hearing and reduced tumor volume” value in data set [5] is “about 40 % of patients”.
